The subject of one data set is P-388. In words: Inhibition of cell growth by counting cells, P-388. It counts as cell-based, mouse. Particulars: Mus musculus, P388, 72 h; three days of incubation; read-out: IC50 (molar) P-388. A digest of the protocol:
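Mouse P-388 lymphoid neoplasm suspension cells seeded at 1×10^4 cells/well in EMEM 5% FCS containing graded sample concentrations, in duplicate alongside drug-free growth controls. Cells counted by Coulter counter; % growth vs untreated gives dose-response curves, IC50 = concentration producing 50% growth inhibition.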

The subject of the next data set is A-549. Nature of the data set: Inhibition of cell growth by counting cells, A-549. Type of data set: cell-based, human. Particulars: Homo sapiens, A549, 72 h; three days of incubation; read-out: IC50 (molar) A-549. In a few lines: (§1)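 Monolayer lines were plated at 1×10^4 cells per well with compound in medium containing 5% FCS. After a 3-day incubation at 37° C, crystal violet staining gave an approximate IC50, and cell counting of duplicate wells gave the dose-response IC50.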

The next data set deals with HT-29. Nature of the data set: Inhibition of cell growth by counting cells, HT-29. Type of data set: cell-based, human. To be noted: Homo sapiens, HT-29, 72 h; three days of incubation; read-out: IC50 (molar) HT-29. A digest of the protocol:
as §1

For a further data set, the system named is MEL-28. Nature of the data set: Inhibition of cell growth by counting cells, MEL-28. Type of data set: cell-based, human. To be noted: Homo sapiens, SK-MEL-28, 72 h; three days of incubation; read-out: IC50 (molar) MEL-28. In a few lines: as §1
The next data set deals with DU-145. In words: Inhibition of cell growth by counting cells, DU-145. It counts as cell-based, human. To be noted: Homo sapiens, DU-145, 72 h; three days of incubation; read-out: IC50 (molar) DU-145. A digest of the protocol:
as §1

This is an account of results in patent US7759345B2, “Antitumoral derivatives of ET-743” (priority 2001, dated 2010).

Structures are written as SMILES.

Text for Heart: (§2) Toxicity was asssessed by the methods reported in Toxicology in Vitro, 15 (2001) 571-577, J. Luber Narod et al.: “Evaluation of the use of in vitro methodolodies as tools for screening new compounds for potential in vivo toxicity”.
Text for Kidney: as §2
Text for Liver: as §2
Text for Myelo: as §2
Text for Skeletal: as §2

`CCCCCCCC(=O)Oc1cc2c(cc1OC)[C@@]1(CS[C@@H]3c4c(OC(C)=O)c(C)c5c(c4[C@H](COC1=O)N1C3[C@H]3c4c(cc(C)c(OC)c4O)C[C@@H]([C@@H]1O)N3C)OCO5)NCC2` (stereo partly shown) [Compound 59]: the IC50 in the data set with P-388, in the data set on A-549, in the data set on HT-29, in the data set on MEL-28 and in the data set with DU-145 was 0.113 nM in each case. Further, in the data set with Liver, the “Toxicity Data Liver” value was 2.53E-08. Further, the “Toxicity Data Heart” value in the data set with Heart was 8.14E-08. The “Toxicity Data Myelo” value with Myelo was 4.18E-08. The “Toxicity Data Skeletal” value with Skeletal is listed as 1.46E-07. The “Toxicity Data Kidney” value in the data set with Kidney is 2.87E-08.

Take `COc1cc2c(cc1OC(=O)/C=C/c1ccccc1)CCN[C@]21CS[C@@H]2c3c(OC(C)=O)c(C)c4c(c3[C@H](COC1=O)N1C2[C@H]2c3c(cc(C)c(OC)c3O)C[C@@H]([C@@H]1O)N2C)OCO4` (stereo partly shown) [Compound 61]: the IC50 in the data set on P-388, in the data set on A-549, in the data set on HT-29, with MEL-28 and in the data set on DU-145 was 0.112 nM throughout. Further, the “Toxicity Data Liver” value in the data set on Liver was determined as 1.32E-08. In addition, the “Toxicity Data Heart” value in the data set with Heart amounted to 2.76E-08. For the same compound, the “Toxicity Data Myelo” value in the data set with Myelo is listed as 1.69E-08. Moreover, the “Toxicity Data Skeletal” value in the data set with Skeletal is on record as 1.47E-08. The “Toxicity Data Kidney” value with Kidney stood at 5.12E-09.

Turning to `COc1cc2c(cc1OC(=O)OCc1ccccc1)CCN[C@]21CS[C@@H]2c3c(OC(C)=O)c(C)c4c(c3[C@H](COC1=O)N1C2[C@H]2c3c(cc(C)c(OC)c3O)C[C@@H]([C@@H]1O)N2C)OCO4` (stereo partly shown) [Compound 65], the 50% inhibitory concentration (IC50) in the data set on P-388, with A-549, in the data set with HT-29, in the data set with MEL-28 and in the data set with DU-145 was 0.112 nM throughout. Further, the “Toxicity Data Liver” value with Liver turned out to be 5.30E-09. The “Toxicity Data Heart” value with Heart is on record as 9.00E-09. Moreover, in the data set on Myelo, the “Toxicity Data Myelo” value turned out to be 1.70E-08. For the same compound, the “Toxicity Data Skeletal” value in the data set on Skeletal came to 3.77E-09. Besides, the “Toxicity Data Kidney” value in the data set on Kidney turned out to be 3.15E-09.

Regarding `C=CCOc1cc2c(cc1OC)[C@@]1(CS[C@@H]3c4c(OC(C)=O)c(C)c5c(c4[C@H](COC1=O)N1C3[C@H]3c4c(cc(C)c(OC)c4O)C[C@@H]([C@@H]1O)N3C)OCO5)NCC2` (stereo partly shown) [Compound 70], the half-inhibitory concentration (IC50) with P-388, with A-549, in the data set with HT-29, in the data set with MEL-28 and in the data set on DU-145 was 0.125 nM each time. In addition, the “Toxicity Data Liver” value in the data set with Liver was determined as 3.16E-08. Further, the “Toxicity Data Heart” value with Heart is recorded as 2.20E-07. For the same compound, the “Toxicity Data Myelo” value with Myelo was found to be 6.61E-08. In the data set with Skeletal, the “Toxicity Data Skeletal” value was found to be 3.67E-08. Besides, in the data set on Kidney, the “Toxicity Data Kidney” value was 1.07E-07.

For the compound `COc1cc2c(cc1OC(=O)OC(C)(C)C)CCN[C@]21CS[C@@H]2c3c(OC(C)=O)c(C)c4c(c3[C@H](COC1=O)N1C2[C@H]2c3c(cc(C)c(OC)c3OC(=O)OC(C)(C)C)C[C@@H]([C@@H]1O)N2C)OCO4` (stereo partly shown) [Compound 86], the concentration for half-maximal inhibition (IC50) with P-388, in the data set with A-549, in the data set with HT-29, with MEL-28 and in the data set with DU-145 was 0.52 nM each time. In addition, the “Toxicity Data Liver” value with Liver was determined as 1.47E-08. Further, the “Toxicity Data Heart” value in the data set with Heart is listed as 8.16E-08. For the same compound, the “Toxicity Data Myelo” value in the data set with Myelo worked out at 8.35E-08. In the data set with Skeletal, the “Toxicity Data Skeletal” value came to 3.88E-08. Also, the “Toxicity Data Kidney” value in the data set on Kidney worked out at 1.37E-08.

With `COc1cc2c(cc1OC(=O)C(F)(F)F)CCN[C@]21CS[C@@H]2c3c(OC(C)=O)c(C)c4c(c3[C@H](COC1=O)N1C2[C@H]2c3c(cc(C)c(OC)c3O)C[C@@H]([C@@H]1O)N2C)OCO4` (stereo partly shown) [Compound 104], the IC50 was 0.117 nM in the data set on P-388; 0.583 nM with A-549; 0.583 nM in the data set with HT-29; 0.583 nM in the data set on MEL-28; 0.583 nM in the data set on DU-145. The “Toxicity Data Liver” value with Liver was found to be 4.16E-09. Besides, in the data set with Heart, the “Toxicity Data Heart” value is given as 3.44E-09. The “Toxicity Data Myelo” value in the data set on Myelo came to 1.93E-08. Also, the “Toxicity Data Skeletal” value in the data set with Skeletal turned out to be 4.10E-07. In addition, the “Toxicity Data Kidney” value in the data set with Kidney stood at 2.67E-09.

For `COc1cc2c(cc1O)CCN[C@]21CS[C@@H]2c3c(OC(=O)/C=C/c4ccccc4)c(C)c4c(c3[C@H](COC1=O)N1C2[C@H]2c3c(cc(C)c(OC)c3O)C[C@@H]([C@@H]1O)N2C)OCO4` (stereo partly shown) [Compound 161], the IC50 with P-388, in the data set on A-549, in the data set on HT-29, in the data set with MEL-28 and with DU-145 was 0.118 nM in each case. The “Toxicity Data Liver” value with Liver is recorded as 8.58E-09. The “Toxicity Data Heart” value in the data set on Heart was found to be 1.13E-08. The “Toxicity Data Myelo” value in the data set with Myelo was found to be 2.27E-08. For the same compound, the “Toxicity Data Skeletal” value in the data set with Skeletal is recorded as 1.65E-08. The “Toxicity Data Kidney” value in the data set with Kidney was determined as 2.60E-09.
